Measurements taken from patent EP1166782A2, “Anti-retroviral pharmaceutical compositions” (Yang, Chi-Chiang, priority 2000, dated 2002).
Read-outs that look alike come from different tables or passages of the source.

Tests used:
cells = experiment: Cellular activities in microculture tetrazolium (MTT) tests; assay type: cell-based
Procedure: The cellular activities were tested according to method as described in Alley M.C. et al, Cancer Res. 1988; 48(3):589-601. The principle of the method resides in that live cells can reduce MTT., i.e., 3-[4,5-dimethylthiazol-2-yl]-2,5-diphenyltetrazolium bromide)(tetrazolium salt) to formazan crystal through the dehydrogenase metabolism in Mitochondria. The crystal was dissolved in propanol and OD values were determined at 570 nm. The OD values can indicate the numbers of the live cells. The growth conditions of the cells were observed firstly. The cells were diluted to 2x10^4 cells/ml. 100µl sample taken by micropipet was placed in a 96-well plate. The plate was cultured for 24 hours as 37°C and 100µl of the compounds to be tested, which were prepared in medium, were added in each well. […] After culture for 4 hours, supernatant liquid was absorbed and 100 µl DMSO and 10µl /well was added. Each well was homogeneously mixed. The absorbance was determined at 570 nm.

[1] = test system: macrophage-tropic (NL-43); experiment: P24 quantification (P24 EIA) in infected PBMCs, NL-43; assay type: cell-based, HIV-1; conditions: PBMC; for concentrations of the viral P24 antigen, NL43(+): (+) original concentration of compound maintained after washing; for concentrations of the viral P24 antigen, NL43(-): (-) compound removed after washing
Procedure: (§1) PBMCs were treated with various concentrations of CAPE, MC and PEDMC provided in Example 2 and simultaneously infected with […] and macrophage and T cells dual tropic (89.6) HIV-1 isolates. The next day, the added compounds were removed by washing methods or maintained at the same concentration. Samples were divided into two groups and the upernatants of the culture medium were collected at the 3 and 7 days after infection, respectively. The use of P24 EIA Reagent Kit of Abbott Laboratory compares the concentrations of viral P24 antigen with or without the compounds tested.

T cells-tropic (JRCSF) = experiment: P24 quantification (P24 EIA) in infected PBMCs, JRCSF; assay type: cell-based, HIV-1; conditions: PBMC; for concentrations of the viral P24 antigen, JRCSF(+): (+) original concentration of compound maintained after washing; for concentrations of the viral P24 antigen, JRCSF(-): (-) compound removed after washing
Procedure: as §1

[2] = test system: macrophage and T cells dual tropic (89.6); experiment: P24 quantification (P24 EIA) in infected PBMCs, 89.6; assay type: cell-based, HIV-1; conditions: PBMC; for concentrations of the viral P24 antigen, 89.6(+): (+) original concentration of compound maintained after washing; for concentrations of the viral P24 antigen, 89.6(-): (-) compound removed after washing
Procedure: as §1

[3] = test system: various HIV isolates (NL-43, JRCSF or 89.6); experiment: P24 quantification, summary statements over all isolates; assay type: cell-based, HIV-1; conditions: Figures 3-5; PBMC infected with NL-43, JRCSF or 89.6
Procedure: as §1

[4] = test system: Peripheral Blood Mononuclear Cells (PBMC); conditions: for The numbers of dead cells in 400 cells' count / % viability: 48 hours; for The numbers of dead cells in 400 cells' count: control 9 dead cells; for % viability: viable cells versus control (391);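 on all read-outs here: trypan blue dye exclusion, cells stained and counted from quadruplicate dishes, DMSO vehicle kept under 0.5%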
Procedure: Viability of the cells was assayed by the trypan blue dye exclusion method. […] The concentration of DMSO was adjusted to be less than 0.5%. Cells from quadruplicated dishes were washed once with Hank's Balanced Salt Solution (HBSS). According to the process, the floating dead cells will be separated from the live monolayer cells. Then the cells were stained with trypan blue and counted. The total number of viable cells in the control group was considered as 100% viability and the agent-treated cells were compared with the control group for the determination of % viability. The % viability of agent-treated cells was calculated from the total number of viable cells in the control group and in the agent-treated group.

COc1ccc(C=CC(=O)OCCc2ccccc2)cc1OC [PEDMC, phenethyl dimethyl caffeate]
MTT 24h, cellular activities (cells; 0.1 µM): 92.38 relative percentage
MTT 48h, cellular activities (cells; 0.1 µM): 97.31 relative percentage
MTT 24h, cellular activities (cells; 0.5 µM): 98.72 relative percentage
MTT 48h, cellular activities (cells; 0.5 µM): 98.72 relative percentage
MTT 24h, cellular activities (cells; 1 µM): 98.26 relative percentage
MTT 48h, cellular activities (cells; 1 µM): 105.28 relative percentage
MTT 24h, cellular activities (cells; 5 µM): 94.33 relative percentage
MTT 48h, cellular activities (cells; 5 µM): 104.07 relative percentage
MTT 24h, cellular activities (cells; 10 µM): 98.72 relative percentage
MTT 48h, cellular activities (cells; 10 µM): 98.08 relative percentage
MTT 24h, cellular activities (cells; 25 µM): 107.27 relative percentage
MTT 48h, cellular activities (cells; 25 µM): 98.78 relative percentage
MTT 24h, cellular activities (cells; 50 µM): 102.03 relative percentage
MTT 48h, cellular activities (cells; 50 µM): 97.15 relative percentage
MTT 24h, cellular activities (cells; 100 µM): 106.06 relative percentage
MTT 48h, cellular activities (cells; 100 µM): 97.74 relative percentage
MTT 24h, cellular activities (cells; 200 µM): 97.93 relative percentage
MTT 48h, cellular activities (cells; 200 µM): 96.32 relative percentage
MTT 24h, cellular activities (cells; 400 µM): 94.8 relative percentage
MTT 48h, cellular activities (cells; 400 µM): 93.76 relative percentage
cellular activities in MTT tests (result in words) (cells; Figures 1 and 2, 24 and 48 hours): no substantial effects
concentrations of the viral P24 antigen, NL43(+) ([1]; 0.1 µM): 1000 unit
concentrations of the viral P24 antigen, NL43(-) ([1]; 0.1 µM): 1000 unit
concentrations of the viral P24 antigen, NL43(+) ([1]; 0.5 µM): 1000 unit
concentrations of the viral P24 antigen, NL43(-) ([1]; 0.5 µM): 1000 unit
concentrations of the viral P24 antigen, NL43(+) ([1]; 1 µM): 1000 unit
concentrations of the viral P24 antigen, NL43(-) ([1]; 1 µM): 1000 unit
concentrations of the viral P24 antigen, NL43(+) ([1]; 5 µM): 1000 unit
concentrations of the viral P24 antigen, NL43(-) ([1]; 5 µM): 1000 unit
concentrations of the viral P24 antigen, NL43(+) ([1]; 10 µM): 1000 unit
concentrations of the viral P24 antigen, NL43(-) ([1]; 10 µM): 1000 unit
concentrations of the viral P24 antigen, NL43(+) ([1]; 25 µM): 1000 unit
concentrations of the viral P24 antigen, NL43(-) ([1]; 25 µM): 1000 unit
concentrations of the viral P24 antigen, NL43(+) ([1]; 50 µM): 1000 unit
concentrations of the viral P24 antigen, NL43(-) ([1]; 50 µM): 1000 unit
concentrations of the viral P24 antigen, NL43(+) ([1]; 100 µM): 1000 unit
concentrations of the viral P24 antigen, NL43(-) ([1]; 100 µM): 1000 unit
concentrations of the viral P24 antigen, NL43(+) ([1]; 200 µM): 890.43 unit
concentrations of the viral P24 antigen, NL43(-) ([1]; 200 µM): 981.43 unit
concentrations of the viral P24 antigen, NL43(+) ([1]; 400 µM): 640.7 unit
concentrations of the viral P24 antigen, NL43(-) ([1]; 400 µM): 898.4 unit
concentrations of the viral P24 antigen, JRCSF(+) (T cells-tropic (JRCSF); 0.1 µM): 1000 unit
concentrations of the viral P24 antigen, JRCSF(-) (T cells-tropic (JRCSF); 0.1 µM): 1000 unit
concentrations of the viral P24 antigen, JRCSF(+) (T cells-tropic (JRCSF); 0.5 µM): 1000 unit
concentrations of the viral P24 antigen, JRCSF(-) (T cells-tropic (JRCSF); 0.5 µM): 1000 unit
concentrations of the viral P24 antigen, JRCSF(+) (T cells-tropic (JRCSF); 1 µM): 1000 unit
concentrations of the viral P24 antigen, JRCSF(-) (T cells-tropic (JRCSF); 1 µM): 1000 unit
concentrations of the viral P24 antigen, JRCSF(+) (T cells-tropic (JRCSF); 5 µM): 1000 unit
concentrations of the viral P24 antigen, JRCSF(-) (T cells-tropic (JRCSF); 5 µM): 1000 unit
concentrations of the viral P24 antigen, JRCSF(+) (T cells-tropic (JRCSF); 10 µM): 1000 unit
concentrations of the viral P24 antigen, JRCSF(-) (T cells-tropic (JRCSF); 10 µM): 1000 unit
concentrations of the viral P24 antigen, JRCSF(+) (T cells-tropic (JRCSF); 25 µM): 1000 unit
concentrations of the viral P24 antigen, JRCSF(-) (T cells-tropic (JRCSF); 25 µM): 1000 unit
concentrations of the viral P24 antigen, JRCSF(+) (T cells-tropic (JRCSF); 50 µM): 1000 unit
concentrations of the viral P24 antigen, JRCSF(-) (T cells-tropic (JRCSF); 50 µM): 1000 unit
concentrations of the viral P24 antigen, JRCSF(+) (T cells-tropic (JRCSF); 100 µM): 892.45 unit
concentrations of the viral P24 antigen, JRCSF(-) (T cells-tropic (JRCSF); 100 µM): 1000 unit
concentrations of the viral P24 antigen, JRCSF(+) (T cells-tropic (JRCSF); 200 µM): 452.46 unit
concentrations of the viral P24 antigen, JRCSF(-) (T cells-tropic (JRCSF); 200 µM): 1000 unit
concentrations of the viral P24 antigen, JRCSF(+) (T cells-tropic (JRCSF); 400 µM): 348.96 unit
concentrations of the viral P24 antigen, JRCSF(-) (T cells-tropic (JRCSF); 400 µM): 869.4 unit
concentrations of the viral P24 antigen, 89.6(+) ([2]; 0.1 µM): 1000 unit
concentrations of the viral P24 antigen, 89.6(-) ([2]; 0.1 µM): 1000 unit
concentrations of the viral P24 antigen, 89.6(+) ([2]; 0.5 µM): 1000 unit
concentrations of the viral P24 antigen, 89.6(-) ([2]; 0.5 µM): 1000 unit
concentrations of the viral P24 antigen, 89.6(+) ([2]; 1 µM): 1000 unit
concentrations of the viral P24 antigen, 89.6(-) ([2]; 1 µM): 1000 unit
concentrations of the viral P24 antigen, 89.6(+) ([2]; 5 µM): 1000 unit
concentrations of the viral P24 antigen, 89.6(-) ([2]; 5 µM): 1000 unit
concentrations of the viral P24 antigen, 89.6(+) ([2]; 10 µM): 965.48 unit
concentrations of the viral P24 antigen, 89.6(-) ([2]; 10 µM): 932.67 unit
concentrations of the viral P24 antigen, 89.6(+) ([2]; 25 µM): 886.42 unit
concentrations of the viral P24 antigen, 89.6(-) ([2]; 25 µM): 927.4 unit
concentrations of the viral P24 antigen, 89.6(+) ([2]; 50 µM): 747.3 unit
concentrations of the viral P24 antigen, 89.6(-) ([2]; 50 µM): 681.42 unit
concentrations of the viral P24 antigen, 89.6(+) ([2]; 100 µM): 238.49 unit
concentrations of the viral P24 antigen, 89.6(-) ([2]; 100 µM): 647 unit
concentrations of the viral P24 antigen, 89.6(+) ([2]; 200 µM): 187.59 unit
concentrations of the viral P24 antigen, 89.6(-) ([2]; 200 µM): 539.82 unit
concentrations of the viral P24 antigen, 89.6(+) ([2]; 400 µM): 84.85 unit
concentrations of the viral P24 antigen, 89.6(-) ([2]; 400 µM): 494.91 unit
viral replications (result in words) [3]: significantly inhibited viral replications
The numbers of dead cells in 400 cells' count ([4]; 0.1 µM): 11
% viability ([4]; 0.1 µM): 389/391 (99.5%)
The numbers of dead cells in 400 cells' count ([4]; 0.5 µM): 10
% viability ([4]; 0.5 µM): 390/391 (99.7%)
The numbers of dead cells in 400 cells' count ([4]; 1 µM): 7
% viability ([4]; 1 µM): 393/391 (100.5%)
The numbers of dead cells in 400 cells' count ([4]; 5 µM): 11
% viability ([4]; 5 µM): 389/391 (99.5%)
The numbers of dead cells in 400 cells' count ([4]; 10 µM): 9
% viability ([4]; 10 µM): 391/391 (100%)
The numbers of dead cells in 400 cells' count ([4]; 25 µM): 8
% viability ([4]; 25 µM): 392/391 (100.3%)
The numbers of dead cells in 400 cells' count ([4]; 50 µM): 10
% viability ([4]; 50 µM): 390/391 (99.7%)
The numbers of dead cells in 400 cells' count ([4]; 100 µM): 10
% viability ([4]; 100 µM): 390/391 (99.7%)
The numbers of dead cells in 400 cells' count ([4]; 200 µM): 7
% viability ([4]; 200 µM): 393/391 (100.5%)
The numbers of dead cells in 400 cells' count ([4]; 400 µM): 6
% viability ([4]; 400 µM): 394/391 (100.8%)
viabilities of PBMC under high-dose versus low-dose treatments (result in words) ([4]; high dose up to 400 µM compared with 0.1-10 µM): no substantial differences
